In patent US20230124862A1, “BISMUTH THIOL COMPOUNDS AND COMPOSITIONS AND METHODS OF TREATING MICROBIAL CO-INFECTIONS” (Microbion Corporation, priority 2020, published 2023):
In brackets after ≈: the same amount, converted by molar mass. Read-outs that look alike come from different tables or passages of the source. Marks after values point to notes of the source that are not given here.

Experiments:
S. aureus ATCC 29213 = assay: MIC control strain; details: QC organism, Example 13
[1] = test system: C. parapsilosis ATCC 22019; assay: Antifungal broth microdilution (Example 13), QC organism; format: cell-based, Candida parapsilosis; details: 24 hr, first of two values x/y (footnote b not given, presumably MIC2)
[2] = test system: B. cepcacia complex (not further speciated); assay: microbe, parasite or virus in culture; format: cell-based, Burkholderia cepacia complex; details: Burkholderia cepacia
Aspergillus spp. = assay: Antifungal broth microdilution (Example 13); format: cell-based, A. niger, A. terreus, A. fumigatus, A. flavus; details: for MEC at 48 hr: complete inhibition (MIC0) not observed
physchem = format: physicochemical
in vivo = assay: in vivo; parameters: species or system beagle dogs; details: dog; for half-life: two-dose inhalation
Procedure: Once adequately conditioned to the restraint device and face-masks, the animals are individually exposed to the test article aerosols. Animals receive a single face-mask inhalation exposure in a ramp study design to test article aerosols for up to 60 min. Animal observations during and post exposure determine the tolerance of inhaled BisEDT aerosols.
Blood Collections and Bioanalytical Analysis: Blood are collected for pharmacokinetic (PK) analysis prior to exposure, then at 4 hr (±5 min) post exposure, and again on Day 1, Day 2, Day 7 (pre- and 4 hr (±5 min)-post exposure), Day 8, Day 9, Day 10, Day 11, Day 12, Day 13, and Day 14. A total of 0.25 mL is collected at each timepoint. No PK blood is collected from the vehicle control (Group 1) animals; only animals exposed to BisEDT have blood collected for PK analysis. Collected samples are flash frozen without processing for shipment to Medpace for bioanalytical analysis. Additional blood is collected from all animals in all groups for hematology (1 mL) and clinical chemistry (1 mL) at baseline, Day 7 (pre-exposure), and again at euthanasia. Blood (2-2 mL) is collected from all animals at necropsy for coagulation analysis (d-Dimer, fibrinogen, PT, and PTT).
Blood for pharmacokinetic analysis (0.25 mL) is collected into tubes containing K3EDTA as an anticoagulant.
The left lobe of the lung is used for histopathology and will be fixed in 10% NBF. […] Liver, spleen, kidney, brain, heart, and respiratory tract are collected and fixed for potential, future analysis.
A two-dose inhalation PK study in dogs was performed covering four doses from 50 μg/kg to 450 μg/kg lung deposited dose. […] The systemic half-life is approximately 4 days, and the lung tissue half-life is approximately 7 days.

P. aeruginosa [3] = assay: Checkerboard FIC/FICI assay; format: cell-based, Pseudomonas aeruginosa; details: during FIC testing
Acinetobacter baumannii = assay: Broth microdilution MIC (Example 12); format: cell-based
[4] = test system: Burkholderia cepacia complex; format: cell-based, Burkholderia spp.; details: initial MIC testing
P. aeruginosa [5] = assay: Broth microdilution MIC (Example 10); format: cell-based, Pseudomonas aeruginosa; details: initial MIC testing
[6] = Animals 4001 and 4004, Day 14 (7 days after last dose)

## CC(S)C(C)S.[Bi] (stereo not shown) [BisBDT, bismuth-2,3-butanedithiol]
S. aureus ATCC 29213
  MIC 24 hr: 1^a
[1]
  MIC 24 hr: 1 µg/mL
[2]; strain BC 9
  MIC: 0.5 µg/mL
[2]; strain PC 213
  MIC: 1 µg/mL
Aspergillus spp.; 24 h, A. flavus ATCC 22546, complete inhibition, 24 hr, read-out: MIC0 24 hr
  MIC: 1 µg/mL
Aspergillus spp.; 24 h, A. flavus ATCC 204304, complete inhibition, 24 hr, read-out: MIC0 24 hr
  MIC: 4 µg/mL
Aspergillus spp.; 24 h, A. flavus MMX 7935, complete inhibition, 24 hr, read-out: MIC0 24 hr
  MIC: 8 µg/mL
Aspergillus spp.; 24 h, A. fumigatus ATCC 204305, complete inhibition, 24 hr, read-out: MIC0 24 hr
  MIC: 8 µg/mL
Aspergillus spp.; 24 h, A. fumigatus ATCC MYA-3626, complete inhibition, 24 hr, read-out: MIC0 24 hr
  MIC: 2 µg/mL
Aspergillus spp.; 24 h, A. fumigatus MMX 5934, complete inhibition, 24 hr, read-out: MIC0 24 hr
  MIC: 2 µg/mL
Aspergillus spp.; 24 h, A. fumigatus MMX 5939, complete inhibition, 24 hr, read-out: MIC0 24 hr
  MIC: 2 µg/mL
Aspergillus spp.; 24 h, A. terreus MMX 8229, complete inhibition, 24 hr, read-out: MIC0 24 hr
  MIC: 0.25 µg/mL
Aspergillus spp.; 48 h, A. flavus ATCC 22546, complete inhibition, 48 hr, read-out: MIC0 48 hr
  MIC: 2 µg/mL
Aspergillus spp.; 48 h, A. flavus MMX 7935, complete inhibition, 48 hr, read-out: MIC0 48 hr
  MIC: 8 µg/mL
Aspergillus spp.; 48 h, A. fumigatus ATCC MYA-3626, complete inhibition, 48 hr, read-out: MIC0 48 hr
  MIC: 4 µg/mL
Aspergillus spp.; 48 h, A. fumigatus MMX 5939, 48 hr, cell marked footnote b, read-out: MIC0 48 hr
  MIC: 4 µg/mL
Aspergillus spp.; 48 h, A. terreus MMX 8229, complete inhibition, 48 hr, read-out: MIC0 48 hr
  MIC: 1 µg/mL
Aspergillus spp.; A. flavus ATCC 204304, 48 hr
  MEC at 48 hr: 4/4^a μg/mL
Aspergillus spp.; A. flavus ATCC 204304, 48 hr, cells marked footnote c (not given; Table 109 gives the 48 hr results as MEC)
  MIC 48 hr: 4^c
Aspergillus spp.; A. fumigatus ATCC 204305, 48 hr
  MEC at 48 hr: 4 µg/mL
Aspergillus spp.; A. fumigatus ATCC MYA-3626, 24 hr
  MIC 24 hr: 2 µg/mL
Aspergillus spp.; A. fumigatus ATCC MYA-3626, 48 hr
  MIC 48 hr: 4 µg/mL
Aspergillus spp.; A. fumigatus MMX 5934, 48 hr
  MEC at 48 hr: 4 µg/mL
Aspergillus spp.; A. niger ATCC 29508, complete inhibition, […], read-out: MIC0 48 hr
  MIC: 2 µg/mL

## C1C[S][Bi]([S]CC[S][Bi]2[S]CC[S]2)[S]1 [BisEDT, Bismuth-1,2-ethanedithiol]
physchem
  solubility: < 5 µg/mL
In vivo; beagle, in vivo, inhaled or intranasal, read-out: lung tissue half-life (converted)
  half-life: ~168 h
In vivo; beagle, in vivo, inhaled or intranasal, read-out: systemic half-life (converted)
  half-life: ~96 h
In vivo; beagle, in vivo, inhaled or intranasal, whole blood, after both doses
  Tmax: ~24 h
In vivo; [6]
  average blood level: less than 20 ng/mL
  lung tissue level: over 7,000 ng/g

## C[C@@H](O)[C@H]1C(=O)N2C(C(=O)O)=C(S[C@@H]3CN[C@H](C(=O)N(C)C)C3)[C@H](C)[C@H]12 [MEM]
P. aeruginosa [3]; isolate 103 (ATCC 25922), each agent tested alone for QC, one replicate
  MIC: 1 µg/mL
P. aeruginosa [3]; isolate 6322
  MIC: 16 µg/mL
P. aeruginosa [3]; isolate 6977
  MIC: 8 µg/mL
P. aeruginosa [3]; isolate 7745
  MIC: 16 µg/mL
P. aeruginosa [3]; isolate 8798
  MIC: 32 µg/mL
Acinetobacter baumannii; A. baumannii CDC 273, ESBL/OXA
  MIC: >8 µg/mL
Acinetobacter baumannii; A. baumannii CDC 274, ESBL/OXA
  MIC: >8 µg/mL
Acinetobacter baumannii; A. baumannii CDC 275, ESBL/OXA
  MIC: >8 µg/mL
Acinetobacter baumannii; A. baumannii CDC 277, ESBL/OXA
  MIC: >8 µg/mL
Acinetobacter baumannii; A. baumannii CDC 284, ESBL/OXA
  MIC: >8 µg/mL
Acinetobacter baumannii; A. baumannii CDC 307, OXA
  MIC: 8 µg/mL (≈ 20.9 µM)
Acinetobacter baumannii; A. baumannii CDC 308, ESBL/OXA
  MIC: 8 µg/mL (≈ 20.9 µM)
Acinetobacter baumannii; A. baumannii CDC 311, OXA
  MIC: >8 µg/mL
Acinetobacter baumannii; A. baumannii CDC 312, OXA
  MIC: 4 µg/mL (≈ 10.4 µM)
Acinetobacter baumannii; A. baumannii CDC 313, ESBL/OXA
  MIC: >8 µg/mL
Acinetobacter baumannii; A. baumannii NCTC 13304, OXA
  MIC: >8 µg/mL
[4]; B. cenocepacia isolate 0548 (CIP-R)
  MIC: 4 µg/mL (≈ 10.4 µM)
[4]; B. cenocepacia isolate 0813 (CPI-I)
  MIC: 2 µg/mL (≈ 5.22 µM)
[4]; B. cenocepacia isolate 1631
  MIC: 4 µg/mL (≈ 10.4 µM)
[4]; B. cenocepacia isolate 1783
  MIC: 4 µg/mL (≈ 10.4 µM)
[4]; B. cenocepacia isolate 8555
  MIC: 4 µg/mL (≈ 10.4 µM)
[4]; B. cepacia isolate 0546
  MIC: 4 µg/mL (≈ 10.4 µM)
[4]; B. cepacia isolate 0547
  MIC: 2 µg/mL (≈ 5.22 µM)
[4]; B. cepacia isolate 1793
  MIC: 4 µg/mL (≈ 10.4 µM)
[4]; B. cepacia isolate 1794
  MIC: 4 µg/mL (≈ 10.4 µM)
[4]; B. cepacia isolate 9040
  MIC: 4 µg/mL (≈ 10.4 µM)
[4]; B. multivorans isolate 1580 (CIP-R)
  MIC: 2 µg/mL (≈ 5.22 µM)
[4]; B. multivorans isolate 1791
  MIC: 4 µg/mL (≈ 10.4 µM)
[4]; B. multivorans isolate 1795 (MEM-I, CIP-R)
  MIC: 8 µg/mL (≈ 20.9 µM)
[4]; B. multivorans isolate 5665 (CIP-I)
  MIC: 2 µg/mL (≈ 5.22 µM)
[4]; B. multivorans isolate 8952 (CIP-I)
  MIC: 2 µg/mL (≈ 5.22 µM)
P. aeruginosa [5]; P. aeruginosa isolate 103, QC strain
  MIC: 1 µg/mL (≈ 2.61 µM)
P. aeruginosa [5]; P. aeruginosa isolate 1497 (TOB-R AMK-R, CIP-I, AZT-R, COL-R)
  MIC: 0.06 µg/mL (≈ 0.156 µM)
P. aeruginosa [5]; P. aeruginosa isolate 1530 (TOB-R, AMK-R, CIP-R)
  MIC: 0.5 µg/mL (≈ 1.3 µM)
P. aeruginosa [5]; P. aeruginosa isolate 1553 (TOB-R, AMK-R, CIP-R)
  MIC: 0.5 µg/mL (≈ 1.3 µM)
P. aeruginosa [5]; P. aeruginosa isolate 6322 (MEM-R, TOB-R, AMK-R, CIP-R, AZT-R)
  MIC: 16 µg/mL (≈ 41.7 µM)
P. aeruginosa [5]; P. aeruginosa isolate 6977 (MEM-I, TOB-R, CIP-R, AZT-I)
  MIC: 4 µg/mL (≈ 10.4 µM)
P. aeruginosa [5]; P. aeruginosa isolate 7745 (MEM-R, CIP-R, AZT-R)
  MIC: 16 µg/mL (≈ 41.7 µM)
P. aeruginosa [5]; P. aeruginosa isolate 7754 (MEM-R, TOB-R, CIP-R, AZT-I)
  MIC: 32 µg/mL (≈ 83.4 µM)
P. aeruginosa [5]; P. aeruginosa isolate 7762 (MEM-I, CIP-I)
  MIC: 4 µg/mL (≈ 10.4 µM)
P. aeruginosa [5]; P. aeruginosa isolate 7871 (MEM-R, AZT-I)
  MIC: 8 µg/mL (≈ 20.9 µM)
P. aeruginosa [5]; P. aeruginosa isolate 7874
  MIC: 1 µg/mL (≈ 2.61 µM)
P. aeruginosa [5]; P. aeruginosa isolate 7886 (MEM-R, CIP-R, AZT-R)
  MIC: 32 µg/mL (≈ 83.4 µM)
P. aeruginosa [5]; P. aeruginosa isolate 8797 (MEM-R, TOB-R, AMK-R, CIP-R, AZT-R, COL-R)
  MIC: 32 µg/mL (≈ 83.4 µM)
P. aeruginosa [5]; P. aeruginosa isolate 8798 (MEM-R, TOB-R, AMK-R, CIP-R, AZT-R, COL-R)
  MIC: 64 µg/mL (≈ 167 µM)
P. aeruginosa [5]; P. aeruginosa isolate 9108 (CIP-R, AZT-I)
  MIC: 0.5 µg/mL (≈ 1.3 µM)
